The values below come from patent US6783949B1, “Processes for determining whether a test substance contains lipases or lipase inhibitors” (Aventis Pharma Deutschland GmbH, priority 1999, dated 2004).

In one test the target is T1, HSL (Rattus norvegicus, UniProt P15304).
T1 construct: The partially purified HSL can be stored at −70° C. for 4 to 6 weeks; from tissue; host or cells: rat epididymal fat cells (male Wistar rats)
T1 sequence (P15304 1-768 isoform P15304-2): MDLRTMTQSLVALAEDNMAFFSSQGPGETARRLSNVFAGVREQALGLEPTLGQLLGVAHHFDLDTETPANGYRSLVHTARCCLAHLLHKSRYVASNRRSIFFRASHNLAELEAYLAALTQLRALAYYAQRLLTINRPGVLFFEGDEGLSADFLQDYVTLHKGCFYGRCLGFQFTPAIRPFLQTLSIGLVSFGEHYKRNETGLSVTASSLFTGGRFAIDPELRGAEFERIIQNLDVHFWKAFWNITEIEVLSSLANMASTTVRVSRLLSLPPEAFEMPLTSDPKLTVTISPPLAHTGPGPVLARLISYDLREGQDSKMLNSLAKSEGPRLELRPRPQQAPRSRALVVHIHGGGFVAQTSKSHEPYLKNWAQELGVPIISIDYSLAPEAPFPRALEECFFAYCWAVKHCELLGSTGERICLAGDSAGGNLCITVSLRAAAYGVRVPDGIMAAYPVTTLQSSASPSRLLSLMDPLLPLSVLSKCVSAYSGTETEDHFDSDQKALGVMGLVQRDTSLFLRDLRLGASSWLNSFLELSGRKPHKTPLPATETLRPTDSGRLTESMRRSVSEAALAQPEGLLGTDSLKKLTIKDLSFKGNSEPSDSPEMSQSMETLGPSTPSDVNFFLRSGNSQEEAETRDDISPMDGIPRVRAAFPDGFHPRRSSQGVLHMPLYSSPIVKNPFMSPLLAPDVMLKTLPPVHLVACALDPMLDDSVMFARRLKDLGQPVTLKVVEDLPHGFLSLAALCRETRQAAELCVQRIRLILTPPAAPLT
The test is described as follows: PNPB assay. The format is biochemical. Conditions: Example 6, Table 6; n=5, mean±SD. As for the experimental part: Isolated rat fat cells are obtained from epididymal fatty tissue from untreated male rats (Wistar, 220-250 g) by collagenase treatment according to published processes. The fat cells from 10 rats are washed three times by flotation with 50 ml each of homogenization buffer ([…], pH 7.4, 0.25 M sucrose, 1 mM ethylenediamine-N,N,N′,N′-tetraacetic acid (EDTA), 1 mM dithiothreitol (DTT), 10 μg/ml of leupeptin, 10 μg/ml of antipain, 20 μg/ml of pepstatin) and finally taken up in 10 ml of homogenization buffer. The fat cells are homogenized in a Teflon-in-glass homogenizer (Braun-Melsungen) by 10 strokes at 1500 rpm and 15° C. The homogenizate is centrifuged (Sorvall SM24 tubes, 5000 rpm, 10 min, 4° C.). […]
10 μl of p-nitrophenyl butyrate (PNPB)(2 mM in acetonitrile), 890 μl of 0.1 M KPi (pH 7.25), 0.9% NaCl, 1 mM DTT, and 100 μl of HSL (prepared as above, diluted in this buffer) are incubated at 37° C. for 10 min. […] An equivalent volume of the upper phase is then taken and the absorption is determined at 400 nm.
Substances are customarily tested in four independent batches. The inhibition of the enzymatic activity of the HSL by a test substance is determined by comparison with an uninhibited control reaction. The IC50 value is calculated by means of an inhibition curve using at least 10 concentrations of the test substance. […]

A further test deals with PLA2 from snake venom. Description: Cleavage of NAG by PLA2. The format is biochemical. Conditions: 60 min, NAG 0.05 mg/ml.

Usually IC50 stands for the concentration that inhibits the measured activity by half. As for `O=C(CCCCCCCCCCCNc1ccc([N+](=O)[O-])c2nonc12)OCC(O)CO` (racemic) [Compound 3], the IC50 on HSL is more than 100 µM.
For `O=C(CCCCCCCCCCCNc1ccc([N+](=O)[O-])c2nonc12)OCC(O)CO` (centres unmarked) [Compound (3)], the “Increase in the absorption at 481 nm” value in the test with PLA2 from snake venom (PLA2, enzyme 10 arb. units) is 1 ± 1 arb. units; in the test on PLA2 from snake venom (PLA2, enzyme 20 arb. units), 3 ± 2 arb. units; with PLA2 from snake venom (PLA2, enzyme 50 arb. units) it was 5 ± 1 arb. units; in the test on PLA2 from snake venom (PLA2, enzyme 75 arb. units), 8 ± 2 arb. units; in the test on PLA2 from snake venom (PLA2, enzyme 100 arb. units) it was 10 ± 2 arb. units; in the test on PLA2 from snake venom (PLA2, enzyme 150 arb. units) it was 26 ± 6 arb. units. The “Increase in the absorption at 481 nm” value is listed as 35 ± 9 arb. units with PLA2 from snake venom (PLA2, enzyme 200 arb. units); 46 ± 12 arb. units with PLA2 from snake venom (PLA2, enzyme 250 arb. units); 54 ± 9 arb. units with PLA2 from snake venom (PLA2, enzyme 300 arb. units); 75 ± 11 arb. units in the test on PLA2 from snake venom (PLA2, enzyme 400 arb. units).
